Data: US8470810B2, “Heterocyclic compounds suitable for treating disorders that respond to modulation of the dopamine D3 receptor” (Abbott GmbH & Co. KG, priority 2004, dated 2013)
Counter-ions that a name gives are not always drawn. Blank lines part the entries; values can stand above or below the compound they belong to.

Experiments:
[1] = molecular target: T1, human dopamine D3 receptors (Homo sapiens, UniProt P35462); test: Dopamine D3 receptor binding, displacement of [125I]-iodosulpride; conditions: for Ki: membranes of HEK-293 cells stably expressing human D3, 0.1 nM [125I]-iodosulpride, 25° C., 60 minutes; for Ki(D2)*/Ki(D3)*: selectivity ratio of the receptor binding constants D2 over D3
T1 construct: expressed in transfected cells
Experimental: (§1) The substance to be tested was either dissolved in methanol/Chremophor® (BASFAG) or in dimethyl sulfoxide and then diluted with water to the desired concentration.
(§2) Each assay mixture was run in triplicate.
The incubation buffer contained 50 mM tris, 120 mM NaCl, 5 mM KCl, 2 mM CaCl2, 2 mM MgCl2 and 0.1% bovine serum albumin, 10 μM quinolone and 0.1% ascorbic acid (prepared fresh daily). The buffer was adjusted to pH 7.4 with HCl.
(§3) After having been incubated at 25° C. for 60 minutes, the assay mixtures were filtered through a Whatman GF/B glass fiber filter under vacuum using a cell collecting device. The filters were transferred to scintillation viols using a filter transfer system. After 4 ml of Ultima Gold® (Packard) have been added, the samples were shaken for one hour and the radioactivity was then counted in a Beta-Counter (Packard, Tricarb 2000 or 2200CA). The cpm values were converted into dpm using a standard quench series and the program belonging to the instrument.
(§4) The inhibition curves were analyzed by means of iterative nonlinear regression analysis using the Statistical Analysis System (SAS) which is similar to the “LIGAND” program described by Munson and Rodbard.
(§5) The results of the receptro binding studies are expressed as receptor binding constants Ki(D2) and Ki(D3), respectively, as herein before described, and given in table 6.

[2] = molecular target: T2, human dopamine D2L receptors (long isoform) (Homo sapiens, UniProt P14416); test: Dopamine D2L receptor binding, displacement of [125I] iodospiperone; conditions: membranes of HEK-293 cells stably expressing human D2L; 0.01 nM [125I] iodospiperone; 25° C., 60 minutes; read-out: Ki(D2)*
T2 construct: expressed in transfected cells
Experimental: as §1, §2
The incubation buffer contained 50 mM tris, 120 mM NaCl, 5 mM KCl, 2 mM CaCl2, 2 mM MgCl2 and 0.1% bovine serum albumin. The buffer was adjusted to pH 7.4 with HCl.
as §3, §4, §5

T2 sequence (P14416 whole entry, canonical isoform): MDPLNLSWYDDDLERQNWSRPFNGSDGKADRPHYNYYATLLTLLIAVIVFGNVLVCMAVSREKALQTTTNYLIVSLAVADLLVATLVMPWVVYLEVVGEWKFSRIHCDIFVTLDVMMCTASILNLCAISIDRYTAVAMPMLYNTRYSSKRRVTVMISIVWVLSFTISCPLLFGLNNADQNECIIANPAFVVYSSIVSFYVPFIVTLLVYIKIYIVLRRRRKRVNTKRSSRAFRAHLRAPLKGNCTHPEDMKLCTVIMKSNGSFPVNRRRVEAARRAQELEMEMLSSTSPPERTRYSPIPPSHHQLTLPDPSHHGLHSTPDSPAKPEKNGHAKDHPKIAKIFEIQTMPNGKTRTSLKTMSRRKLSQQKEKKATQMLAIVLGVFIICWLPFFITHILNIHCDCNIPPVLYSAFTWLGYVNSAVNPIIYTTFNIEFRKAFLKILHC
T1 sequence (P35462 whole entry): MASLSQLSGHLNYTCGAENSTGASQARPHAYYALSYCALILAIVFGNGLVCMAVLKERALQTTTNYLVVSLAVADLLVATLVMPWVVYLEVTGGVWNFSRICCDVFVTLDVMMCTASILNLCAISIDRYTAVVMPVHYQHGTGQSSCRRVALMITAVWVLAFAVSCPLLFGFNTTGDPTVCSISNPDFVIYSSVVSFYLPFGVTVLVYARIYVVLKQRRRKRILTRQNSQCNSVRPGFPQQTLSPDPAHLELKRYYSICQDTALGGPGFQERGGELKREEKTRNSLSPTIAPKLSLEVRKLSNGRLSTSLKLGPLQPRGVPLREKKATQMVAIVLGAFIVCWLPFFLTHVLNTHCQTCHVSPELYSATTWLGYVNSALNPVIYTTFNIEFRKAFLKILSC

Compound: CCCN1CC[C@H](c2ccc(NS(=O)(=O)c3ccc(C(C)C)cc3)cc2)C1.Cl [Example 5, 4-(Isopropyl)-N-[4-((R)-1-propyl-pyrrolidin-3-yl)-phenyl]benzenesulfonamide hydrochloride]
Ki [1]: 2.9 nM
Ki(D2)*/Ki(D3)* [1]: 93
Ki [2]: 267 nM

Compound: CC(C)c1ccc(S(=O)(=O)Nc2ccc([C@@H]3CCN(CCF)C3)cc2)cc1 [Example 96, N-{4-[(S)-1-(2-Fluoro-ethyl)-pyrrolidin-3-yl]-phenyl}-4-isopropyl-benzenesulfonamide]
Ki [1]: 0.83 nM
Ki(D2)*/Ki(D3)* [1]: 70
Ki [2]: 57.8 nM

Compound: N-[4-((S)-1-Propyl-pyrrolidin-3-yl)-phenyl]-4-pyrrol-1-yl-benzenesulfonamide [Example 74]
Ki [1]: 0.69 nM
Ki(D2)*/Ki(D3)* [1]: 15
Ki [2]: 10.5 nM

Compound: CCCN1CC[C@@H](c2ccc(NS(=O)(=O)c3ccc(CC(F)(F)F)cc3)cc2)C1 [Example 103, N-[4-((S)-1-Propyl-pyrrolidin-3-yl)-phenyl]-4-(2,2,2-trifluoro-ethyl)benzenesulfonamide]
Ki [1]: 1.2 nM
Ki(D2)*/Ki(D3)* [1]: 38
Ki [2]: 45 nM

Compound: CCCN1CC(c2ccc(NS(=O)(=O)c3ccc(C(C)C(F)F)cc3)cc2)C1 (centres unmarked) [Example 64, 4-(2,2-Difluoro-1-methyl-ethyl)-N-[4-(1-propyl-azetidin-3-yl)-phenyl]-benzenesulfonamide]
Ki [1]: 2.1 nM
Ki(D2)*/Ki(D3)* [1]: 164
Ki [2]: 344 nM

Compound: CC(=O)O.COc1cc(C2CCNC2)ccc1NS(=O)(=O)c1ccc(C(C)C)cc1 (centres unmarked) [Example 135, 4-Isopropyl-N-(2-methoxy-4-pyrrolidin-3-yl-phenyl)-benzenesulfonamide, acetate]
Ki [1]: 0.85 nM
Ki(D2)*/Ki(D3)* [1]: 17

Compound: CCCN1CC(c2ccc(NS(=O)(=O)c3ccc(CCC(F)(F)F)cc3)cc2)C1 [Example 61, N-[4-(1-Propyl-azetidin-3-yl)-phenyl]-4-(3,3,3-trifluoro-propyl)-benzenesulfonamide]
Ki [1]: 21.3 nM

Continued, values first:

Ki [1]: 0.35 nM
Ki(D2)*/Ki(D3)* [1]: 11
Ki [2]: 3.88 nM
Compound: CCCN1CC[C@@H](c2ccc(NS(=O)(=O)c3ccc(N4CCCC4)cc3)cc2)C1 [Example 67, N-[4-((S)-1-Propyl-pyrrolidin-3-yl)-phenyl]-4-pyrrolidin-1-yl-benzenesulfonamide]

Ki [1]: 0.61 nM
Ki [2]: 6.73 nM
Compound: CCCN1CC[C@@H](c2ccc(NS(=O)(=O)c3ccc(-c4ccco4)cc3)cc2)C1 [Example 73, 4-Furan-2-yl-N-[4-((S)-1-propyl-pyrrolidin-3-yl)-phenyl]-benzenesulfonamide]

Ki [1]: 0.76 nM
Ki(D2)*/Ki(D3)* [1]: 13
Compound: CCCN1CCC(c2ccc(NS(=O)(=O)c3ccc(C(C)C)cc3)c(F)c2)C1.Cl (centres unmarked) [Example 134, N-[2-Fluoro-4-(1-propyl-pyrrolidin-3-yl)-phenyl]-4-isopropyl-benzenesulfonamide, hydrochloride]

Ki [1]: 0.28 nM
Ki(D2)*/Ki(D3)* [1]: 42
Ki [2]: 11.7 nM
Compound: CCCc1ccc(S(=O)(=O)Nc2ccc([C@@H]3CCN(CCC)C3)cc2)cc1.Cl [Example 30, 4-Propyl-N-[4-((S)-1-propyl-pyrrolidin-3-yl)-phenyl]-benzenesulfonamide hydrochloride]

Ki [1]: 0.15 nM
Ki(D2)*/Ki(D3)* [1]: 22
Ki [2]: 3.25 nM
Compound: CCCN1CC[C@@H](c2ccc(NS(=O)(=O)c3ccc(C4CCCC4)cc3)cc2)C1 [Example 37, 4-Cyclopentyl-N-[4-(S)-1-propyl-pyrrolidin-3-yl)-phenyl]-benzenesulfonamide hydrochloride]

Ki [1]: 0.36 nM
Ki(D2)*/Ki(D3)* [1]: 12
Compound: C=CCN1CCC(c2ccc(NS(=O)(=O)c3ccc(C(C)C)cc3)c(OC)c2)C1.Cl (centres unmarked) [Example 137, N-[4-(1-Allyl-pyrrolidin-3-yl)-2-methoxy-phenyl]-4-isopropyl-benzenesulfonamide, hydrochloride]

Ki [1]: 0.27 nM
Ki(D2)*/Ki(D3)* [1]: 6
Compound: CCCN1CCC(c2ccc(NS(=O)(=O)c3ccc(C(C)C)cc3)c(OC)c2)C1.Cl (centres unmarked) [Example 136, 4-Isopropyl-N-[2-methoxy-4-(1-propyl-pyrrolidin-3-yl)-phenyl]-benzenesulfonamide, hydrochloride]
